Measured values reported in ChEMBL document CHEMBL5226347, “Discovery of Chromane-6-Sulfonamide Derivative as a Potent, Selective, and Orally Available Novel Retinoic Acid Receptor-Related Orphan Receptor γt Inverse Agonist” (J Med Chem, 2021).
Values after ≈ are worked out from the molar mass of the structure shown. Active and inactive are the calls of the source. No cut-off for these calls is given here.

Tests used:
Mus musculus [1] = experiment: Antiinflammatory activity against imiquimod-induced Balb/c mouse skin inflammation model assessed as reduction in scaling at 5 to 20 mg/kg, po BID for 13 days; format: functional, organism-based; conditions: dose 5-20 mg/kg, time 13.0 day
[2] = Tmax in mouse at 0.3 mg/kg, iv measured at 2 to 1440 mins by LC-MS analysis; format: ADME, organism-based; conditions: in vivo, time 2-1440 min
[3] = Cmax in mouse at 1 mg/kg, po measured at 5 to 1440 mins by LC-MS analysis; format: ADME, organism-based; design: time upper 1440 min, time lower 5 min, dose 1 mg/kg, route po; conditions: in vivo
[4] = Lipophilicity, log D of the compound at pH 7.4; format: physicochemical; conditions: buffer
[5] = Half life in mouse at 0.3 mg/kg, iv measured at 2 to 1440 mins by LC-MS analysis; format: ADME, organism-based; conditions: in vivo, time 2-1440 min
[6] = Clearance in mouse at 0.3 mg/kg, iv measured at 2 to 1440 mins by LC-MS analysis; format: ADME, organism-based; conditions: in vivo, time 2-1440 min
[7] = Oral bioavailability in mouse at 1 mg/kg measured at 5 to 1440 mins by LC-MS analysis; format: ADME, organism-based; conditions: in vivo, time 5-1440 min
[8] = biological target: T1, Nuclear receptor ROR-beta (Homo sapiens, UniProt Q92753); experiment: Inhibition of human GAL4-fused RORbeta LBD transfected in HEK293T cell measured for 16 to 20 hrs by dual-glo luciferase assay; format: cell-based
T1 sequence (Q92753 whole entry): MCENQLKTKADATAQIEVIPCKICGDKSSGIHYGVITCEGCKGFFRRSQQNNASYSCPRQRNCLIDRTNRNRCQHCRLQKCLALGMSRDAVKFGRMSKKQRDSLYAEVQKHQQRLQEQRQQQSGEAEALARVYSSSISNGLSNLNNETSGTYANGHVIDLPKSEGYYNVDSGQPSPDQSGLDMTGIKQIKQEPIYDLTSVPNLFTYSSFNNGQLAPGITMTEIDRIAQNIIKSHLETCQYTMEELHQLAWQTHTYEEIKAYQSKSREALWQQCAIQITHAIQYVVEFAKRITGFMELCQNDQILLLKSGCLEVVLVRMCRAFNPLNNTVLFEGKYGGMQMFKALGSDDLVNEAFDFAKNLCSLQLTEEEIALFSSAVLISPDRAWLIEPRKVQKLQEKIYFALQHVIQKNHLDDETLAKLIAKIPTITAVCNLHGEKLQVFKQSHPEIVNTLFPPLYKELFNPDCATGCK

[9] = Metabolic stability in human liver microsomes assessed as parent compound remaining measured at 60 mins by HPLC-MS/MS analysis; format: ADME, Microsome; conditions: 1 h
Mus musculus [10] = experiment: Antiinflammatory activity against imiquimod-induced Balb/c mouse skin inflammation model assessed as reduction in total psoriasis area at 20 mg/kg, po BID for 13 days; format: functional, organism-based; conditions: time 13.0 day
Mus musculus [11] = experiment: Antiinflammatory activity against imiquimod-induced Balb/c mouse skin inflammation model assessed as inhibition of IL-17A level at 20 mg/kg, po measured for 13 days; format: functional; design: scale not given: the % may be the effect or the level left; conditions: time 13 day
Mus musculus [12] = experiment: Antiinflammatory activity against imiquimod-induced Balb/c mouse skin inflammation model assessed as reduction in severity index score at 20 mg/kg, po BID for 13 days; format: functional; design: scale not given: the % may be the effect or the level left; conditions: time 13 day
[13] = Metabolic stability in human liver assessed as intrinsic clearance incubated for 5 to 30 mins by HPLC-MS/MS analysis; format: ADME, tissue-based; conditions: liver (preparation not stated), time 5-30 min, read-out: CLH
[14] = Cmax in mouse at 0.3 mg/kg, iv measured at 2 to 1440 mins by LC-MS analysis; format: ADME, organism-based; design: time 2-1440 min, dose 0.3 mg/kg, route iv; conditions: in vivo
[15] = Metabolic stability in human liver microsomes assessed as half life incubated for 5 to 30 mins by HPLC-MS/MS analysis; format: ADME, Microsome; conditions: microsomes, time 5-30 min
[16] = Toxicity in Balb/c mouse assessed as body weight loss at 5 to 20 mg/kg, po administered for 12 days; format: organism-based; conditions: in vivo, 288 h, dose 5-20 mg/kg, time 12 day
[17] = Half life in mouse at 1 mg/kg, po measured at 5 to 1440 mins by LC-MS analysis; format: ADME, organism-based; conditions: in vivo, time 5-1440 min
[18] = Toxicity in Balb/c mouse assessed as inflammatory cell infiltration at 10 to 20 mg/kg, po administered for 13 days; format: organism-based; conditions: in vivo, 312 h, dose 10-20 mg/kg, time 13 day
Mus musculus [19] = experiment: Antiinflammatory activity against imiquimod-induced Balb/c mouse skin inflammation model assessed as reduction in skin thickening at 5 to 20 mg/kg, po BID for 13 days; format: functional, organism-based; conditions: dose 5-20 mg/kg, time 13.0 day
[20] = AUC (0 to infinity) in mouse at 0.3 mg/kg, iv measured at 2 to 1440 mins by LC-MS analysis; format: ADME, organism-based; design: dose 0.3 mg/kg, time 2-1440 min, route iv; conditions: in vivo
Mus musculus [21] = experiment: Antiinflammatory activity against imiquimod-induced Balb/c mouse skin inflammation model assessed as decrease in skin thickening at 10 to 20 mg/kg, po measured for 13 days; format: functional, organism-based; conditions: dose 10-20 mg/kg, time 13.0 day
Mus musculus [22] = experiment: Antiinflammatory activity against imiquimod-induced Balb/c mouse skin inflammation model assessed as inhibition of IL-6 level at 20 mg/kg, po measured for 13 days; format: functional; design: scale not given: the % may be the effect or the level left; conditions: time 13 day
[23] = AUC (0 to t) in mouse at 0.3 mg/kg, iv measured at 2 to 1440 mins by LC-MS analysis; format: ADME, organism-based; design: time lower 2 min, dose 0.3 mg/kg, time upper 1440 min, route iv; conditions: in vivo
Mus musculus [24] = experiment: Antiinflammatory activity against imiquimod-induced Balb/c mouse skin inflammation model assessed as decrease in erythema at 5 to 20 mg/kg, po BID for 13 days; format: functional, organism-based; conditions: dose 5-20 mg/kg, time 13.0 day
[25] = Volume of distribution at steady state in mouse at 0.3 mg/kg, iv measured at 2 to 1440 mins by LC-MS analysis; format: ADME, organism-based; conditions: in vivo, time 2-1440 min, read-out: Vdss
[26] = Tmax in mouse at 1 mg/kg, po measured at 5 to 1440 mins by LC-MS analysis; format: ADME, organism-based; conditions: in vivo, time 5-1440 min
[27] = Solubility of compound in aqueous buffer at pH 7.4; format: physicochemical
[28] = AUC (0 to t) in mouse at 1 mg/kg, po measured at 5 to 1440 mins by LC-MS analysis; format: ADME, organism-based; design: time 5-1440 min, dose 1 mg/kg, route po; conditions: in vivo
[29] = AUC (0 to infinity) in mouse at 1 mg/kg, po measured at 5 to 1440 mins by LC-MS analysis; format: ADME, organism-based; design: dose 1 mg/kg, time 5-1440 min, route po; conditions: in vivo

**Q.** For `CCc1ccc(N(C2CCC2)S(=O)(=O)c2ccc3c(c2)C(O)CC(C2CCOCC2)O3)cc1` (centres undefined), which Activity (Mus musculus [1]) is on record?
**A.** Active

**Q.** What about the Tmax [2] of the same molecule?
**A.** 1.52 h

**Q.** And the Cmax [3]?
**A.** 94 ng/mL

**Q.** And the logD [4]?
**A.** 3.69

**Q.** What about the half-life [5] of the same molecule?
**A.** 0.87 h

**Q.** What about the clearance [6] of the same molecule?
**A.** 38.6 mL/min/kg

**Q.** And the bioavailability [7]?
**A.** 55%

**Q.** What about the IC50 [8] of the same molecule?
**A.** > 10 µM

**Q.** What about the Stability [9] of the same molecule?
**A.** 45.1%

**Q.** And the Activity (Mus musculus [10])?
**A.** Active

**Q.** What about the Activity (Mus musculus [11]) of the same molecule?
**A.** 37.6%

**Q.** What about the Activity (Mus musculus [12]) of the same molecule?
**A.** 70.5%

**Q.** And the CLint scaled [13]?
**A.** 27.1 mL/min/kg

**Q.** And the Cmax [14]?
**A.** 83 ng/mL

**Q.** And the t1/2 [15]?
**A.** 0.817 h

**Q.** And the Activity [16]?
**A.** Non-Toxic

**Q.** And the half-life [17]?
**A.** 1.32 h

**Q.** What about the Activity [18] of the same molecule?
**A.** Non-Toxic

**Q.** And the Activity (Mus musculus [19])?
**A.** Active

**Q.** And the AUC(0-inf) [20]?
**A.** 163 ng·h/mL

**Q.** What about the Activity (Mus musculus [21]) of the same molecule?
**A.** inactive

**Q.** And the Activity (Mus musculus [22])?
**A.** 71.9%

**Q.** And the AUC(0-t) [23]?
**A.** 153 ng·h/mL

**Q.** What about the Activity (Mus musculus [24]) of the same molecule?
**A.** Active

**Q.** And the Vd [25]?
**A.** 1.54 L/kg

**Q.** What about the Tmax [26] of the same molecule?
**A.** 2.32 h

**Q.** What about the solubility [27] of the same molecule?
**A.** 8.68 µg/mL (≈ 18.4 µM)

**Q.** What about the AUC(0-t) [28] of the same molecule?
**A.** 285 ng·h/mL

**Q.** What about the AUC(0-inf) [29] of the same molecule?
**A.** 298 ng·h/mL
